Experimental data from PubChem BioAssay (NCI).
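GI50: concentration for 50% inhibition of growth. The concentration for full growth arrest is given as TGI.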

What was measured:
Assay in all cases: growth of human tumour cells (NCI), 384-well format
NCI/ADR-RES ovarian = system: NCI/ADR-RES ovarian
HCC-2998 colon = system: HCC-2998 colon
K-562 leukemia = system: K-562 leukemia
CCRF-CEM leukemia = system: CCRF-CEM leukemia
T-47D breast = system: T-47D breast
HCT-15 colon = system: HCT-15 colon
MALME-3M melanoma = system: MALME-3M melanoma
RPMI-8226 leukemia = system: RPMI-8226 leukemia
UACC-257 melanoma = system: UACC-257 melanoma
CAKI-1 renal = system: CAKI-1 renal
SK-MEL-28 melanoma = system: SK-MEL-28 melanoma
EKVX NSCLC = system: EKVX NSCLC
OVCAR-5 ovarian = system: OVCAR-5 ovarian
HS 578T breast = system: HS 578T breast
UACC-62 melanoma = system: UACC-62 melanoma
SK-MEL-5 melanoma = system: SK-MEL-5 melanoma
NCI-H226 lung = system: NCI-H226 lung
HL-60(TB) leukemia = system: HL-60(TB) leukemia
OVCAR-3 ovarian = system: OVCAR-3 ovarian
COLO 205 colon = system: COLO 205 colon
HCT-116 colon = system: HCT-116 colon
NCI-H23 lung = system: NCI-H23 lung
MDA-MB-231 breast = system: MDA-MB-231 breast
A549 NSCLC = system: A549 NSCLC
M14 melanoma = system: M14 melanoma
IGROV1 ovarian = system: IGROV1 ovarian
NCI-H322M lung = system: NCI-H322M lung
RXF 393 renal = system: RXF 393 renal
SN12C renal = system: SN12C renal
OVCAR-4 ovarian = system: OVCAR-4 ovarian
NCI-H460 NSCLC = system: NCI-H460 NSCLC
HOP-62 NSCLC = system: HOP-62 NSCLC
MDA-MB-435 melanoma = system: MDA-MB-435 melanoma
MOLT-4 leukemia = system: MOLT-4 leukemia
UO-31 renal = system: UO-31 renal
BT-549 breast = system: BT-549 breast
KM12 colon = system: KM12 colon
SK-MEL-2 melanoma = system: SK-MEL-2 melanoma
HOP-92 NSCLC = system: HOP-92 NSCLC
DU-145 prostate = system: DU-145 prostate
SK-OV-3 ovarian = system: SK-OV-3 ovarian
SF-539 CNS = system: SF-539 CNS
SNB-19 CNS = system: SNB-19 CNS
MDA-MB-468 breast = system: MDA-MB-468 breast
HT29 colon = system: HT29 colon
SF-268 CNS = system: SF-268 CNS
TK-10 renal = system: TK-10 renal
U251 glioblastoma = system: U251 glioblastoma
LOX IMVI melanoma = system: LOX IMVI melanoma
SF-295 CNS = system: SF-295 CNS
OVCAR-8 ovarian = system: OVCAR-8 ovarian
SW-620 colon = system: SW-620 colon
PC-3 prostate = system: PC-3 prostate
SNB-75 CNS = system: SNB-75 CNS
786-0 renal = system: 786-0 renal
ACHN renal = system: ACHN renal
NCI-H522 lung = system: NCI-H522 lung
MCF7 breast = system: MCF7 breast
A498 renal = system: A498 renal

Compound: C[C@]12O[C@H](C[C@]1(O)CO)n1c3ccccc3c3c4c(c5c6ccccc6n2c5c31)CNC4=O
- GI50 (NCI/ADR-RES ovarian): 1200 nM
- TGI (NCI/ADR-RES ovarian): 2460 nM
- GI50 (HCC-2998 colon): 153 nM
- TGI (HCC-2998 colon): 773 nM
- GI50 (K-562 leukemia): 60.1 nM
- TGI (K-562 leukemia): 1610 nM
- GI50 (CCRF-CEM leukemia): 11.3 nM
- TGI (CCRF-CEM leukemia): 39.7 nM
- GI50 (T-47D breast): 456 nM
- TGI (T-47D breast): 4260 nM
- GI50 (HCT-15 colon): < 10 nM
- TGI (HCT-15 colon): 1300 nM
- GI50 (MALME-3M melanoma): < 10 nM
- TGI (MALME-3M melanoma): 79.5 nM
- GI50 (RPMI-8226 leukemia): 11.6 nM
- TGI (RPMI-8226 leukemia): 39.8 nM
- GI50 (UACC-257 melanoma): 395 nM
- TGI (UACC-257 melanoma): 1680 nM
- GI50 (CAKI-1 renal): < 10 nM
- TGI (CAKI-1 renal): 228 nM
- GI50 (SK-MEL-28 melanoma): 35.8 nM
- TGI (SK-MEL-28 melanoma): 453 nM
- GI50 (EKVX NSCLC): 33.6 nM
- TGI (EKVX NSCLC): 471 nM
- GI50 (OVCAR-5 ovarian): 122 nM
- TGI (OVCAR-5 ovarian): 1900 nM
- GI50 (HS 578T breast): 33.9 nM
- TGI (HS 578T breast): 769 nM
- GI50 (UACC-62 melanoma): < 10 nM
- TGI (UACC-62 melanoma): 610 nM
- GI50 (SK-MEL-5 melanoma): < 10 nM
- TGI (SK-MEL-5 melanoma): 145 nM
- GI50 (NCI-H226 lung): 57.4 nM
- TGI (NCI-H226 lung): 734 nM
- GI50 (HL-60(TB) leukemia): < 10 nM
- TGI (HL-60(TB) leukemia): 51.6 nM
- GI50 (OVCAR-3 ovarian): 157 nM
- TGI (OVCAR-3 ovarian): 1280 nM
- GI50 (COLO 205 colon): 20.2 nM
- TGI (COLO 205 colon): 103 nM
- GI50 (HCT-116 colon): < 10 nM
- TGI (HCT-116 colon): 10300 nM
- GI50 (NCI-H23 lung): 24.1 nM
- TGI (NCI-H23 lung): 311 nM
- GI50 (MDA-MB-231 breast): 60.9 nM
- TGI (MDA-MB-231 breast): 1540 nM
- GI50 (A549 NSCLC): 76.3 nM
- TGI (A549 NSCLC): 1590 nM
- GI50 (M14 melanoma): < 10 nM
- TGI (M14 melanoma): 155 nM
- GI50 (IGROV1 ovarian): < 10 nM
- TGI (IGROV1 ovarian): 1150 nM
- GI50 (NCI-H322M lung): 584 nM
- TGI (NCI-H322M lung): 2140 nM
- GI50 (RXF 393 renal): < 10 nM
- TGI (RXF 393 renal): 49.6 nM
- GI50 (SN12C renal): < 10 nM
- TGI (SN12C renal): 458 nM
- GI50 (OVCAR-4 ovarian): 1380 nM
- TGI (OVCAR-4 ovarian): 3200 nM
- GI50 (NCI-H460 NSCLC): 34.8 nM
- TGI (NCI-H460 NSCLC): 1090 nM
- GI50 (HOP-62 NSCLC): 44.5 nM
- TGI (HOP-62 NSCLC): 646 nM
- GI50 (MDA-MB-435 melanoma): < 10 nM
- TGI (MDA-MB-435 melanoma): 1110 nM
- GI50 (MOLT-4 leukemia): < 10 nM
- TGI (MOLT-4 leukemia): 12.8 nM
- GI50 (UO-31 renal): 14.9 nM
- TGI (UO-31 renal): 1160 nM
- GI50 (BT-549 breast): 12.3 nM
- TGI (BT-549 breast): 213 nM
- GI50 (KM12 colon): < 10 nM
- TGI (KM12 colon): 212 nM
- GI50 (SK-MEL-2 melanoma): < 10 nM
- TGI (SK-MEL-2 melanoma): 84.7 nM
- GI50 (HOP-92 NSCLC): 70.6 nM
- TGI (HOP-92 NSCLC): 720 nM
- GI50 (DU-145 prostate): < 10 nM
- TGI (DU-145 prostate): 1620 nM
- GI50 (SK-OV-3 ovarian): < 10 nM
- TGI (SK-OV-3 ovarian): 627 nM
- GI50 (SF-539 CNS): 24.2 nM
- TGI (SF-539 CNS): 276 nM
- GI50 (SNB-19 CNS): 341 nM
- TGI (SNB-19 CNS): 1850 nM
- GI50 (MDA-MB-468 breast): 21.5 nM
- TGI (MDA-MB-468 breast): 290 nM
- GI50 (HT29 colon): 212 nM
- TGI (HT29 colon): 10500 nM
- GI50 (SF-268 CNS): 44.2 nM
- TGI (SF-268 CNS): 1400 nM
- GI50 (TK-10 renal): < 10 nM
- TGI (TK-10 renal): 598 nM
- GI50 (U251 glioblastoma): 290 nM
- TGI (U251 glioblastoma): 1880 nM
- GI50 (LOX IMVI melanoma): 25.3 nM
- TGI (LOX IMVI melanoma): 186 nM
- GI50 (SF-295 CNS): 44.7 nM
- TGI (SF-295 CNS): 1260 nM
- GI50 (OVCAR-8 ovarian): 96.5 nM
- TGI (OVCAR-8 ovarian): 275 nM
- GI50 (SW-620 colon): 41.6 nM
- TGI (SW-620 colon): 1450 nM
- GI50 (PC-3 prostate): 100 nM
- TGI (PC-3 prostate): 1860 nM
- GI50 (SNB-75 CNS): 143 nM
- TGI (SNB-75 CNS): 1160 nM
- GI50 ([…]-0 renal): 31.3 nM
- TGI (786-0 renal): 515 nM
- GI50 (ACHN renal): < 10 nM
- TGI (ACHN renal): 1680 nM
- GI50 (NCI-H522 lung): < 10 nM
- TGI (NCI-H522 lung): 111 nM
- GI50 (MCF7 breast): 64.2 nM
- TGI (MCF7 breast): 1330 nM
- GI50 (A498 renal): < 10 nM
- TGI (A498 renal): 1370 nM
